Test results as given in PMC4529466, “Intradermal insulin infusion achieves faster insulin action than subcutaneous infusion for 3-day wear” (Drug Delivery and Translational Research, 2015).

System: blood glucose
Experiment: Postprandial blood glucose pharmacodynamics after meal bolus, 3-day ID vs SC infusion
Format: in vivo, human (T1DM patients)
Conditions: ID; for BGavg0–1 / BGmax0–1 / ΔAUC-BG0–1 / ΔBGmax0–1 / BGavg0–1.5 / BGmax0–1.5 / ΔAUC-BG0–1.5 / ΔBGmax0–1.5 / BGavg0–2 / BGmax0–2 / ΔAUC-BG0–2 / ΔBGmax0–2: mean ± SD; for Intra-subject variability of BGavg / Intra-subject variability of BGmax: across all study days and meals
Excerpt: This was a single center, open-label, two-period crossover study, randomized by infusion order, in T1DM patients on continuous subcutaneous insulin infusion (CSII). The protocol was approved by an independent ethics committee (Ethikkommission der Ärztekammer Nordrhein, Düsseldorf, Germany), appropriate regulatory bodies (German Federal Institute for Drugs and Medical Devices (BfArM)), and conducted in compliance with good clinical practice (GCP), the Declaration of Helsinki, and applicable regulatory requirements.
The study was completed over a multi-week period consisting of three study visits: a screening visit (V1) and two interventional visits (V2 and V3). After establishing eligibility and enrollment, patients received treatment during two interventional visits: one SC and one ID basal/bolus infusion of insulin aspart (NovoRapid® U-100, Novo Nordisk, Copenhagen, Denmark) administered over 3 days in a randomized order.
Individual meal bolus doses were determined based on patient self-reported insulin to carbohydrate ratios and insulin sensitivity, historical self-reported insulin usage for meal coverage, and clinician review and adjustment of insulin usage during the in-clinic BG stabilization period the evening prior to the first morning meal. Basal insulin infusion rates were initiated based on the patient’s known daily delivery profile and could be adjusted by the clinician to maintain levels within 70–160 mg/dL according to a predetermined sliding scale and hourly changes in glycemia. A continuous glucose monitor (Seven Plus®, DexCom Inc., San Diego, CA) calibrated per manufacturer’s recommendations was applied to continuously monitor glycemia as a safety measure, in addition to periodic blood sampling for BG determination.
After maintaining targeted blood glucose range during the preceding night, bolus insulin doses were administered via the respective infusion catheter prior to standardized breakfast and lunch test meals on each of the three treatment days. Each meal insulin bolus was calculated based on the patient’s insulin sensitivity and previous hours change in BG per sliding scale then delivered immediately prior to breakfast (t = 0 min) and lunch (t = 360 min) consumption. Breakfast was a high glycemic index (60 g carbohydrates) solid meal, and lunch was a mixed meal based on the individual’s calculated daily energy intake and equivalent in caloric composition by day. Breakfast and lunch meals were consumed within 15 min followed by serial blood sampling with BG monitoring for a period of 6 and 4 h, respectively. Patients were asked to remain sedentary for 2 h after meals. Identical study procedures were utilized for the remaining dosing visit days (Fig. 2).
To assess insulin absorption kinetics and glycemic response, blood samples for measurements of insulin aspart and blood glucose in serum were drawn at predefined time points throughout dosing visits. Serial samples for safety BG determination, but not PK analysis, were obtained at a minimum every 2 h. Meal PK/PD analysis samples were acquired immediately pre-bolus and for 4–6 h post-bolus for breakfast and lunch meals, with a higher frequency during the first 2 h to capture insulin and BG peak levels {Post-bolus breakfast time points (min): 0, 10, 15, 20, 25, 30, 35, 40, 45, 50, 55, 60, 65, 70, 80, 90, 120, 150, 180, 210, 240, 300, 330, 360; Post-bolus lunch time points (min): 0, 10, 20, 30, 40, 50, 60, 70, 80, 90, 120, 180, 240, 300}. Sampling times were based on previous clinical study experience for bolus microneedle insulin delivery and had increased sampling frequency in the first 90 min post-delivery to capture the rapid insulin peaks from microneedle ID delivery. Blood samples for evening meal and basal period PK assessment could not be obtained due to daily blood draw volume limits for patient safety. Serum insulin aspart was measured by a third party laboratory (IKFE GmbH, Mainz, Germany) using a validated insulin assay (Invitron ELISA kit). […]

[1] = 0–1 h, Days 1–3 combined, all test meals, n = 150–156
[2] = 0–1.5 h, Days 1–3 combined, all test meals, n = 150–156
[3] = 0–2 h, Days 1–3 combined, all test meals, n = 150–156

Q: How did the “BGavg0–1” value (0–1 h, Day 1, across meals) turn out when insulin aspart was run?
A: 135 ± 45.9 mg/dL

Q: And the “BGmax0–1” value (0–1 h, Day 1, across meals)?
A: 159 ± 53.1 mg/dL

Q: And the “ΔAUC-BG0–1” value (0–1 h, Day 1, across meals)?
A: 17.2 ± 22.3 mg·h/dL

Q: And the “ΔBGmax0–1” value (0–1 h, Day 1, across meals)?
A: 41.3 ± 32.1 mg/dL

Q: And the “BGavg0–1” value (0–1 h, Day 2, across meals)?
A: 138 ± 37.4 mg/dL

Q: What about the “BGmax0–1” value (0–1 h, Day 2, across meals) of the same substance?
A: 162 ± 43.0 mg/dL

Q: And the “ΔAUC-BG0–1” value (0–1 h, Day 2, across meals)?
A: 18.7 ± 22.0 mg·h/dL

Q: And the “ΔBGmax0–1” value (0–1 h, Day 2, across meals)?
A: 43.1 ± 30.2 mg/dL

Q: And the “BGavg0–1” value (0–1 h, Day 3, across meals)?
A: 136 ± 37.3 mg/dL

Q: What about the “BGmax0–1” value (0–1 h, Day 3, across meals) of the same substance?
A: 162 ± 41.5 mg/dL

Q: What about the “ΔAUC-BG0–1” value (0–1 h, Day 3, across meals) of the same substance?
A: 18.5 ± 19.2 mg·h/dL

Q: What about the “ΔBGmax0–1” value (0–1 h, Day 3, across meals) of the same substance?
A: 44.2 ± 28.1 mg/dL

Q: And the “BGavg0–1” value [1]?
A: 136 ± 40.5 mg/dL

Q: What about the “BGmax0–1” value [1] of the same substance?
A: 161 ± 46.2 mg/dL

Q: What about the “ΔAUC-BG0–1” value [1] of the same substance?
A: 18.1 ± 21.2 mg·h/dL

Q: What about the “ΔBGmax0–1” value [1] of the same substance?
A: 42.8 ± 30.1 mg/dL

Q: And the “Intra-subject variability of BGavg” value (0–1 h)?
A: 26.3 %CV

Q: And the “Intra-subject variability of BGmax” value (0–1 h)?
A: 25.2 %CV

Q: And the “BGavg0–1.5” value (0–1.5 h, Day 1, across meals)?
A: 137 ± 42.1 mg/dL

Q: What about the “BGmax0–1.5” value (0–1.5 h, Day 1, across meals) of the same substance?
A: 160 ± 46.8 mg/dL

Q: What about the “ΔAUC-BG0–1.5” value (0–1.5 h, Day 1, across meals) of the same substance?
A: 32.4 ± 41.7 mg·h/dL

Q: And the “ΔBGmax0–1.5” value (0–1.5 h, Day 1, across meals)?
A: 45.0 ± 34.5 mg/dL

Q: And the “BGavg0–1.5” value (0–1.5 h, Day 2, across meals)?
A: 144 ± 39.9 mg/dL

Q: What about the “BGmax0–1.5” value (0–1.5 h, Day 2, across meals) of the same substance?
A: 169 ± 45.6 mg/dL

Q: What about the “ΔAUC-BG0–1.5” value (0–1.5 h, Day 2, across meals) of the same substance?
A: 36.8 ± 40.8 mg·h/dL

Q: And the “ΔBGmax0–1.5” value (0–1.5 h, Day 2, across meals)?
A: 49.5 ± 33.5 mg/dL

Q: And the “BGavg0–1.5” value (0–1.5 h, Day 3, across meals)?
A: 143 ± 40.2 mg/dL

Q: What about the “BGmax0–1.5” value (0–1.5 h, Day 3, across meals) of the same substance?
A: 172 ± 45.0 mg/dL

Q: What about the “ΔAUC-BG0–1.5” value (0–1.5 h, Day 3, across meals) of the same substance?
A: 39.3 ± 36.8 mg·h/dL

Q: What about the “ΔBGmax0–1.5” value (0–1.5 h, Day 3, across meals) of the same substance?
A: 54.8 ± 34.2 mg/dL

Q: What about the “BGavg0–1.5” value [2] of the same substance?
A: 141 ± 40.6 mg/dL

Q: What about the “BGmax0–1.5” value [2] of the same substance?
A: 167 ± 45.8 mg/dL

Q: And the “ΔAUC-BG0–1.5” value [2]?
A: 36.0 ± 39.8 mg·h/dL

Q: And the “ΔBGmax0–1.5” value [2]?
A: 49.5 ± 34.1 mg/dL

Q: And the “Intra-subject variability of BGavg” value (0–1.5 h)?
A: 25.6 %CV

Q: What about the “Intra-subject variability of BGmax” value (0–1.5 h) of the same substance?
A: 24.5 %CV

Q: What about the “BGavg0–2” value (0–2 h, Day 1, across meals) of the same substance?
A: 139 ± 43.8 mg/dL

Q: What about the “BGmax0–2” value (0–2 h, Day 1, across meals) of the same substance?
A: 165 ± 47.8 mg/dL

Q: What about the “ΔAUC-BG0–2” value (0–2 h, Day 1, across meals) of the same substance?
A: 47.8 ± 63.1 mg·h/dL

Q: And the “ΔBGmax0–2” value (0–2 h, Day 1, across meals)?
A: 49.4 ± 36.7 mg/dL

Q: And the “BGavg0–2” value (0–2 h, Day 2, across meals)?
A: 146 ± 41.9 mg/dL

Q: And the “BGmax0–2” value (0–2 h, Day 2, across meals)?
A: 171 ± 46.5 mg/dL

Q: And the “ΔAUC-BG0–2” value (0–2 h, Day 2, across meals)?
A: 53.9 ± 61.9 mg·h/dL

Q: What about the “ΔBGmax0–2” value (0–2 h, Day 2, across meals) of the same substance?
A: 52.2 ± 33.7 mg/dL

Q: What about the “BGavg0–2” value (0–2 h, Day 3, across meals) of the same substance?
A: 148 ± 41.8 mg/dL

Q: And the “BGmax0–2” value (0–2 h, Day 3, across meals)?
A: 176 ± 44.9 mg/dL

Q: What about the “ΔAUC-BG0–2” value (0–2 h, Day 3, across meals) of the same substance?
A: 62.8 ± 56.3 mg·h/dL

Q: What about the “ΔBGmax0–2” value (0–2 h, Day 3, across meals) of the same substance?
A: 59.5 ± 34.9 mg/dL

Q: And the “BGavg0–2” value [3]?
A: 144 ± 42.4 mg/dL

Q: And the “BGmax0–2” value [3]?
A: 170 ± 46.4 mg/dL

Q: And the “ΔAUC-BG0–2” value [3]?
A: 54.5 ± 60.6 mg·h/dL

Q: And the “ΔBGmax0–2” value [3]?
A: 53.5 ± 35.2 mg/dL

Q: And the “Intra-subject variability of BGavg” value (0–2 h)?
A: 25.9 %CV
